Measurements: patent US10231985B2, “Compounds and compositions comprising such compounds for the prevention or treatment of dyslipidaemias” (CENTRE NATIONAL DE LA RECHERCHE SCIENTIFIQUE, priority 2013, dated 2019)

Assays:
[1] = tested on: QM strain (cells not synthesizing triglycerides); assay: Toxicity test on QM strain (growth inhibition halos); assay type: cell-based, Saccharomyces cerevisiae; details: 5 μl drops on agar, after three days
Procedure: Drops (5 μl) of OAG, LPA or oleic acid were deposited, from stock solutions at the indicated concentrations, on the surface of an agar medium over which the QM strain had been spread beforehand. […] These halos are, however, not observed in the presence of LPA or of OAG.
In parallel, wild-type (WT) and quadruple mutant (QM) strains are grown, under aerobic conditions, with shaking and at 28° C., in liquid YPG medium before seeding 3500 cells per cm^2 of YPG+2% agar (w/v). Following this transfer to solid medium, 1 μl drops of 1, 10 and 100 mM solutions of the various compounds in DMSO or EtOH are deposited on the agar surface. Separately, DMSO and EtOH are also deposited in order to evaluate the intrinsic toxicity of these two solvents. After 3 days of culture at 28° C., the toxicity of the compounds tested is evaluated by comparing the growth inhibition halo diameters obtained for the depositions of pure solvent with those of the depositions of the various concentrations of the compounds tested. Unlike the WT strain, the QM strain is incapable of buffering excess exogenous oleic acid in the form of neutral lipids (triglycerides (TG) or esterified sterols (ES)) in lipid droplets.

[2] = tested on: MIN6 pancreatic β-cells; assay: Monitoring of insulin maturation (Western blot, anti-insulin); assay type: cell-based, mouse; details: MIN6, 400 μM palmitic acid 48 hours, 200 μM compound during final 24 hours
Procedure: Pancreatic β-cells, MIN6, were grown under control conditions (0) or, alternatively, in the presence of an exogenous source of 400 μM palmitic acid (P), for 48 hours, as described by Boslem et al. (2011), in order to generate lipointoxication conditions. During the final 24 hours of growth, 200 μM OAG, LPA or mannide monooleate was added or not as mentioned.
In the manner of that described above for the lipointoxication of BRIN-BD11 cells, the MIN6 cell line is grown in complete DMEM-High Glucose medium […], supplemented with 10% (v/v) fetal calf serum (FCS), 15 mM HEPES, 100 U/ml penicillin and 100 μg/ml streptomycin, and lipointoxication is induced by exposure to 400 μM palmitic acid, coupled to BSA (0.92% (w/v) final), for 48 hours, with or without the addition of the compound of interest (see Boslem et al., 2011). The cells are then collected and a Western blot is carried out as indicated above, using anti-insulin antibodies in order to follow the maturation of proinsulin to insulin.

[3] = tested on: phospholipids of the cellular membranes (hem1Δ strain); assay: Fatty acid content of cellular phospholipids (lipid extraction, ESI-MS); assay type: cell-based, Saccharomyces cerevisiae
Procedure: The hem1Δ strain is grown in liquid medium (YPG^A, YPG^+, or YPG^++200 μM compound to be tested) under aerobic conditions, with shaking and at 28° C. for 7 hours, from an initial cell concentration of 2×10^6 cells/ml. At the conclusion of the culture, 10^8 cells are collected in order to carry out a total lipid extraction. After having suspended the cells in 1 ml of distilled water at 4° C., 500 μl of glass beads (Ø 0.6 mm) are added and the whole then undergoes 3 sequences of 20 seconds at 5000 rpm in a shaker (the tubes are kept on ice between each of the 3 sequences). The cell lysate then obtained, supplemented with bead-washing solution (1 ml), is then transferred to a 40 ml glass tube (Corex™) before carrying out the lipid extraction using a 2:1 (v/v) methanol:chloroform ratio. First, 6 ml of methanol is added and the whole is vortexed for 30 seconds and then incubated for 15 minutes at 65° C. Once the mixture cools to room temperature, 3 ml of chloroform is added and then the whole is vortexed again for 30 seconds before allowing the extraction to proceed for 16 hours. Later, the sample is centrifuged for 12 minutes at 10000 g before transferring the supernatant to a new Corex™ tube. After adding 2 ml of chloroform and then 4 ml of distilled water, the whole is vortexed for 30 seconds and then centrifuged for 8 minutes at 3000 g. After removing the resulting upper phase, the lower organic phase is collected in a glass hemolysis tube. Finally, the solvent is evaporated under a stream of nitrogen at 80° C. in order to obtain the total cellular lipid samples.
The total cellular lipid samples are resuspended in 1 ml of dichloromethane while being vortexed for 30 seconds. The whole is deposited on a silica column (BOND ELUT-SI, 100 mg 1 ml) preconditioned successively with 3 ml of methanol and then 2 ml of dichloromethane. The fraction retained by the column is then washed successively with 2 ml of dichloromethane and then 3 ml of acetone. Finally, 2 ml of a 50:45:5 (v/v/v) chloroform/methanol/water mixture is deposited on the column and the phospholipids thus eluted are collected in a glass hemolysis tube. The solvent is evaporated under nitrogen at 80° C. in order to obtain the cellular phospholipid samples.
Once resuspended in 100 μl of the mixture Mix^− (2:1:1 (v/v/v) isopropanol/acetonitrile/water+1% (v/v) triethylamine) or the mixture Mix^+ (2:1:1 (v/v/v) isopropanol/acetonitrile/water+1% (v/v) formic acid), the samples are analyzed by electrospray ionization mass spectrometry (ESI-MS) in negative or positive mode, respectively, and the results obtained are used to analyze the fatty acid content of the various phospholipid species.

Compound	Growth inhibition halos on QM strain [1]	Maturation of proinsulin to insulin [2]	Effect on fatty acid composition of membrane phospholipids [3]
CCCCCCCC/C=C\CCCCCCCC(=O)OC[C@H](CO)OC(C)=O [OAG, 1-oleoyl-2-acetyl-sn-glycerol]	not observed	only mannide monooleate restores	without restoring a normal diunsaturated phospholipid composition
CCCCCCCC/C=C\CCCCCCCC(=O)OC[C@@H](O)COP(=O)(O)O [LPA, 1-oleoyl-sn-glycerol-3-phosphate]	not observed	only mannide monooleate restores	act directly on lipid content
